Measured values: ChEMBL document CHEMBL1149137, “Synthesis, screening, and molecular modeling of new potent and selective antagonists at the alpha 1d adrenergic receptor” (J Med Chem, 2004)

Key:
[1] = target: Alpha-1D adrenergic receptor (Homo sapiens) (UniProt P25100); assay: Binding affinity to the adrenergic receptor alpha-1D of cloned human receptor
[2] = target: T1, 5-hydroxytryptamine receptor 1A (Homo sapiens, UniProt P08908); assay: Binding affinity to human 5-hydroxytryptamine 1A receptor was measured using [3H]-8-hydroxy-2-(di-n-propylamine) tetraline [3H]8-OH-DPAT) as radioligand
T1 sequence (P08908 whole entry): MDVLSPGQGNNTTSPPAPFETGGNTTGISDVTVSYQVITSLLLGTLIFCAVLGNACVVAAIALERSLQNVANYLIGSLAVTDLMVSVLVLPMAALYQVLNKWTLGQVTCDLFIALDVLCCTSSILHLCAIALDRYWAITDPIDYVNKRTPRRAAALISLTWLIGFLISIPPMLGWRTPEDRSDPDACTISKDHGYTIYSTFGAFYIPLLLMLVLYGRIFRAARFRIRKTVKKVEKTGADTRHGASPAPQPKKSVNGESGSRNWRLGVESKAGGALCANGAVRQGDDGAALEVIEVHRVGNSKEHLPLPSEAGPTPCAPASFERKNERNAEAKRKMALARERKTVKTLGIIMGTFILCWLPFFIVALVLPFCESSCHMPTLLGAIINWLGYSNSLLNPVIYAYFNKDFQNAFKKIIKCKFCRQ

[3] = target: Alpha-1A adrenergic receptor (Homo sapiens) (UniProt P35348); assay: In vitro binding affinity towards alpha-1A adrenergic receptor through displacement of [3H]prazosin in cloned human receptor.

| Structure (SMILES) | Ki [1] [nM] | Ki [2] [nM] | Ki [3] [nM] |
| --- | --- | --- | --- |
| O=C1CC2(CCCC2)CC(=O)N1CCN1CCN(c2cccc(Cl)c2)CC1 | 2.02 | 1.09 | > 1000 |
| O=C1CC2(CCCC2)CC(=O)N1CCNCCOc1ccccc1Cl | > 1000 | > 1000 |  |
| O=C1C=CC(=O)N1CCN1CCN(c2cc(Cl)ccc2Cl)CC1 | 126 | > 1000 |  |
| O=C1CC2(CCCC2)CC(=O)N1CCNCCOc1cc(Cl)ccc1Cl | 207 | > 1000 |  |
| O=C1CC2(CCCC2)CC(=O)N1CCN1CCN(c2cc([N+](=O)[O-])ccc2Cl)CC1 | 18.2 | > 1000 | 44 |
| COc1ccccc1N1CCN(CCN2C(=O)CC3(CCN(Cc4ccccc4)CC3)CC2=O)CC1 | 35.1 | > 1000 | 294 |
| O=C1CC2(CCCC2)CCN1CCN1CCN(c2ccccc2Cl)CC1 | 0.54 | 1.06 | 87.5 |
| COc1ccccc1N1CCN(CCN2C(=O)CC3(CCN(C(C)=O)CC3)CC2=O)CC1 | 429 | > 10 | 1520 |
| CN(C(=O)CNCCN1C(=O)CC2(CCCC2)CC1=O)c1cc(Cl)ccc1Cl | > 1000 | > 1000 |  |
| COc1ccccc1N1CCN(CCN2C(=O)CC3(CCNCC3)CC2=O)CC1 | 71.7 | > 1000 | 631 |
| Cc1ccc(Cl)cc1N1CCN(CCN2C(=O)CC3(CCCC3)CC2=O)CC1 | 0.37 | 135 | 190 |
| CN(CCOc1cc(Cl)ccc1Cl)CCN1C(=O)CC2(CCCC2)CC1=O | 19.1 | > 1000 | 414 |
| O=C1CC2(CCCCC2)CC(=O)N1CCN1CCN(c2ccccc2Cl)CC1 | 2.88 | 20 | 422 |
| CC(CN1CCN(c2cc(Cl)ccc2Cl)CC1)N1C(=O)CC2(CCCC2)CC1=O (configuration not stated) | 0.41 |  | 187 |
| Cc1ccc(F)c(N2CCN(CCN3C(=O)CC4(CCCC4)CC3=O)CC2)c1 | 2.38 |  | > 1000 |
| CN(CCN1C(=O)CC2(CCCC2)CC1=O)CC(=O)N(C)c1cc(Cl)ccc1Cl | > 1000 | > 1000 |  |
| COc1ccccc1OCCNCCN1C(=O)CC2(CCCC2)CC1=O | > 1000 | 526 |  |
| O=C1CC2(CCCC2)CC(=O)N1CCN1CCN(c2cc(C(F)(F)F)ccc2Cl)CC1 | 39.1 | > 1000 |  |
| O=C1CC2(CCCC2)CC(=O)N1CCN1CCN(c2cc(F)ccc2Cl)CC1 | 0.18 |  | 108 |
| O=C1CC2(CCCC2)C(=O)N1CCN1CCN(c2cc(Cl)ccc2Cl)CC1 | 3.11 |  | 68.3 |
| CN(CCCN(C)c1cc(Cl)ccc1Cl)CCN1C(=O)CC2(CCCC2)CC1=O | 110 | > 1000 |  |
| O=C1CC2(CCCC2)CC(=O)N1CCN1CCN(c2ccc(Cl)cc2Cl)CC1 | 3.89 | 12.1 |  |
| O=C1CC2(CCC2)CC(=O)N1CCN1CCN(c2cc(Cl)ccc2Cl)CC1 | 2.65 |  | 120 |
| CN(CCN1C(=O)CC2(CCCC2)CC1=O)CC(=O)Nc1cc(Cl)ccc1Cl | > 1000 | > 10000 |  |
| O=C1CC2(CCCC2)CC(=O)N1CCN1CCN(c2c(Cl)cccc2Cl)CC1 | 29.9 | 234 |  |
| CC(C)c1ccc(N2CCN(CCN3C(=O)CC4(CCCC4)CC3=O)CC2)cc1 | > 1000 | > 1000 |  |
| O=C1CC2(CCCC2)CC(=O)N1CCN1CCN(c2cc([N+](=O)[O-])ccc2F)CC1 | 46.3 | > 1000 |  |

Next, values leading:

| Ki [1] [nM] | Ki [2] [nM] | Ki [3] [nM] | Structure (SMILES) |
| --- | --- | --- | --- |
| 7.78 |  |  | O=C1CCC(=O)N1CCN1CCN(c2cc(Cl)ccc2Cl)CC1 |
| 24.1 | 153 |  | O=C1CC2(CCCC2)CC(=O)N1CCN1CCN(c2ccc(F)cc2)CC1 |
| 3.72 |  | 114 | O=C1CC2(CCCC2)CC(=O)N1CCN1CCN(c2cc(Br)ccc2Br)CC1 |
| 0.37 | 2.33 | 54.4 | COc1ccccc1N1CCN(CCN2CCC3(CCCC3)CC2=O)CC1 |
| 5.38 | 19.8 |  | O=C1CC2(CCCC2)CC(=O)N1CCN1CCN(c2ccc(Cl)c(Cl)c2)CC1 |
| 29 | 4.07 |  | CCOC(=O)c1ccccc1N1CCN(CCN2C(=O)CC3(CCCC3)CC2=O)CC1 |
| 153 | 8.22 |  | O=C1CC2(CCCC2)CC(=O)N1CCN1CCN(c2cccc(C(F)(F)F)c2)CC1 |
| 0.2 |  | 503 | N#Cc1ccc(Cl)cc1N1CCN(CCN2C(=O)CC3(CCCC3)CC2=O)CC1 |
| 0.83 | 4.24 | 552 | O=C1CC2(CCCC2)CC(=O)N1CCN1CCN(c2ccccc2Cl)CC1 |
| 16.4 |  | 786 | CN(CCN1C(=O)CC2(CCCC2)CC1=O)CCN(C)c1cc(Cl)ccc1Cl |
| 16.1 | 1.36 |  | O=C1CC2(CCCC2)CC(=O)N1CCN1CCN(c2ccccc2O)CC1 |
| 10.1 |  | 119 | Cc1ccc(C)c(N2CCN(CCN3C(=O)CC4(CCCC4)CC3=O)CC2)c1 |
| 1.5 |  | 119 | O=C1CC2(CCCC2)CC(=O)N1CCN1CCC(c2cc(Cl)ccc2Cl)CC1 |
| 54.3 | 13.4 | > 1000 | COc1cccc(N2CCN(CCN3C(=O)CC4(CCCC4)CC3=O)CC2)c1 |
| 15.3 |  | 479 | O=C1CC2(CCCC2)CC(=O)N1CCN1CCN(c2cc(I)ccc2Cl)CC1 |
| 35.9 | 599 |  | O=C1CC2(CCCC2)CC(=O)N1CCN1CCN(c2ccc(Cl)cc2)CC1 |
| 3.66 | 25.9 | > 1000 | O=C1CC2(CCCC2)CC(=O)N1CCN1CCC(c2ccccc2)CC1 |

| Ki [1] [nM] | Ki [2] [nM] | Ki [3] [nM] | Structure (SMILES) |
| --- | --- | --- | --- |
| 5.25 | 26.3 |  | O=C1CC2(CCCC2)CC(=O)N1CCN1CCN(c2ccccc2C(F)(F)F)CC1 |
| 2.21 |  | 331 | O=C1CC2(CCCCC2)CC(=O)N1CCN1CCN(c2cc(Cl)ccc2Cl)CC1 |
| 3.15 | 3.84 | 29.2 | COc1ccccc1N1CCN(CCN2C=CC3(CCCC3)CC2=O)CC1 |
|  |  | > 1000 | O=C1CC2(CCCC2)CC(=O)N1CCN1CCN(c2ccccc2F)CC1 |
| 23.4 | 65.8 |  | CC1(C)CC(=O)N(CCN2CCN(c3ccccc3Cl)CC2)C(=O)C1 |
| > 1000 | 399 |  | CC1CN(c2ccccc2[N+](=O)[O-])CC(C)N1CCN1C(=O)CC2(CCCC2)CC1=O (configuration not stated) |
| 15.3 | 11.3 |  | O=C1CC2(CCCC2)CC(=O)N1CCN1CCN(c2ccccc2[N+](=O)[O-])CC1 |
| 12.7 | 3.37 |  | O=C1CC2(CCCC2)CC(=O)N1CCN1CCN(c2cccc(Cl)c2Cl)CC1 |
| 0.14 | 61 |  | O=C1CC2(CCCC2)CC(=O)N1CCN1CCN(c2cc(F)ccc2F)CC1 |
| 110 | 452 |  | CN(CCCOc1cc(Cl)ccc1Cl)CCN1C(=O)CC2(CCCC2)CC1=O |
| 37.8 | 54.6 |  | COc1ccc(N2CCN(CCN3C(=O)CC4(CCCC4)CC3=O)CC2)cc1 |
| 73.3 | 2360 |  | Cc1ccc(N2CCN(CCN3C(=O)CC4(CCCC4)CC3=O)CC2)c(C)c1 |
| 7.56 |  | > 1000 | O=C1CC2(CCCC2)CC(=O)N1CCN1CCN(c2cc(C(F)(F)F)ccc2F)CC1 |
| 14.8 | 125 |  | CN(CCOc1ccccc1Cl)CCN1C(=O)CC2(CCCC2)CC1=O |
| 674 | 717 |  | CN(CCNc1cc(Cl)ccc1Cl)CCN1C(=O)CC2(CCCC2)CC1=O |
| 597 | 86.2 |  | CC1CN(c2ccccc2[N+](=O)[O-])CCN1CCN1C(=O)CC2(CCCC2)CC1=O (configuration not stated) |
